Experimental data taken from paper PMC8001788, “Decursin Alleviates Mechanical Allodynia in a Paclitaxel-Induced Neuropathic Pain Mouse Model” (Cells, 2021).

Target: transient receptor potential vanilloid 1 (TRPV1) (Homo sapiens, UniProt Q8NER1)
Test: Fura-2 calcium imaging of capsaicin-induced Ca2+ in human TRPV1 stable HEK293 cells
Type: cell-based

Sequence of transient receptor potential vanilloid 1 (TRPV1) (Q8NER1 whole entry): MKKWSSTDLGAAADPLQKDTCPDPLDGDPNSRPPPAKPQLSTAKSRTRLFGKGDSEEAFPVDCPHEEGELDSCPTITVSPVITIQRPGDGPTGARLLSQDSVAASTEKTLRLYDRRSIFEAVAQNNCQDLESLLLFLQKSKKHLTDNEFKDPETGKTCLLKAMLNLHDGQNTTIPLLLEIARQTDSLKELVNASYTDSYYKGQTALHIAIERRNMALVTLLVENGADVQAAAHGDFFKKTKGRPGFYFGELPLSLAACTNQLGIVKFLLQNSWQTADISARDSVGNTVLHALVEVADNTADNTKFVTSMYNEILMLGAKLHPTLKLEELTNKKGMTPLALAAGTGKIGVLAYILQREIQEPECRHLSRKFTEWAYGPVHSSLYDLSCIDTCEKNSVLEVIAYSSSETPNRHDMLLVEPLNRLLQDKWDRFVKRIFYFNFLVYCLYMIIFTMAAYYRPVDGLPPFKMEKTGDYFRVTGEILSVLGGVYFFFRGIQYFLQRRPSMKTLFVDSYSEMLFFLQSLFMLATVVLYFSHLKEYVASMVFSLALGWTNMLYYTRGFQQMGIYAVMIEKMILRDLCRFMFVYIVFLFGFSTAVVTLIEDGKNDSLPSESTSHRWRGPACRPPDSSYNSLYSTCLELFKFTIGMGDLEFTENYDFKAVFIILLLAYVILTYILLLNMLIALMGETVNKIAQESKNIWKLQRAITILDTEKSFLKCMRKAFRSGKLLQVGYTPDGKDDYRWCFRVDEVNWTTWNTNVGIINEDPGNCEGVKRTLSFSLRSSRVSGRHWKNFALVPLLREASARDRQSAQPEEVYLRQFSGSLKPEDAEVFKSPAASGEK

IC50: 690 ± 105 nM
Compound: CC(C)=CC(=O)O[C@H]1Cc2cc3ccc(=O)oc3cc2OC1(C)C [decursin]
